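Tested at 5 concentrations; 48 h exposure; 96-well plates; endpoints linearly interpolated, else capped at highest concentration. At the GI50, growth is halved. TGI denotes the concentration required for complete inhibition of growth.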
Assays:
Test in all cases: NCI anticancer screen, dose series, 48 h
A549 NSCLC = test system: A549 NSCLC
CAKI-1 renal = test system: CAKI-1 renal
CCRF-CEM leukemia = test system: CCRF-CEM leukemia
HOP-62 NSCLC = test system: HOP-62 NSCLC
KM12 colon = test system: KM12 colon
RPMI-8226 leukemia = test system: RPMI-8226 leukemia
SF-268 CNS = test system: SF-268 CNS
SNB-19 CNS = test system: SNB-19 CNS
U251 CNS = test system: U251 CNS
UACC-257 melanoma = test system: UACC-257 melanoma

SMILES	GI50 (A549 NSCLC)	TGI (A549 NSCLC)	GI50 (CAKI-1 renal)	TGI (CAKI-1 renal)	GI50 (CCRF-CEM leukemia)	TGI (CCRF-CEM leukemia)	GI50 (HOP-62 NSCLC)	TGI (HOP-62 NSCLC)	GI50 (KM12 colon)	TGI (KM12 colon)	GI50 (RPMI-8226 leukemia)	TGI (RPMI-8226 leukemia)	GI50 (SF-268 CNS)	TGI (SF-268 CNS)	GI50 (SNB-19 CNS)	TGI (SNB-19 CNS)	GI50 (U251 CNS)	TGI (U251 CNS)	GI50 (UACC-257 melanoma)	TGI (UACC-257 melanoma)
CCCCCCCCCCCCCCCCCCNC(=O)[C@H]1CSC(c2cccs2)N1 (stereo not given in full)	1690 nM	> 50000 nM	1030 nM	2090 nM	372 nM	2030 nM	959 nM	1710 nM	977 nM	1980 nM	985 nM	2410 nM	1110 nM	2340 nM	3600 nM	> 50000 nM	929 nM	1740 nM	1250 nM	3120 nM
CCC(=C(c1ccc(OCCCN(C)C)cc1)c1ccc(OCCCN(C)C)cc1)c1ccc(Cl)cc1	601 nM	2460 nM	560 nM	2190 nM	392 nM	1130 nM	2310 nM	5100 nM	1260 nM	3430 nM	366 nM	871 nM	1040 nM	2720 nM	921 nM	3050 nM	419 nM	1100 nM	883 nM	2240 nM
CN(C)Cc1c[nH]c2c(NCCN)c3c(c(NCCN)c12)C(=O)c1ccccc1C3=O	3390 nM	16200 nM	20800 nM	41700 nM	1060 nM	8930 nM	1310 nM	6390 nM	1590 nM	7110 nM	1430 nM	6520 nM	3650 nM	14700 nM	6520 nM	23000 nM	394 nM	1870 nM	6180 nM	> 23800 nM
CNC(SC)=C1C(=O)OC(C)(C)OC1=O		> 100000 nM		> 100000 nM		> 100000 nM		> 100000 nM		> 100000 nM		> 100000 nM		> 100000 nM		> 100000 nM		37700 nM		> 100000 nM
